The results in this text go back to patent US20230165242A1, “RODENTICIDAL BAIT AND METHOD OF CONTROLLING TARGET HARMFUL RODENTS” (priority 2020, published 2023).

Holding throughout (assay type): in vivo, rat
For experiment [1], the system named is warfarin-sensitive male OFA-Sprague-Dawley rats. The experiment can be described thus: Synergy of bromadiolone and cholecalciferol, gavage, survival. As to conditions: gavage 5 consecutive days; bromadiolone 0.1 mg/kg alone, cholecalciferol 7.5 mg/kg alone, or both combined; after 20 days of observation. From the text:
A group of 10 warfarin-sensitive male OFA-Sprague-Dawley rats (Charles River, L′Arbresles, France), aged 10 weeks and with a body weight between 160 and 180 g, are fed by gavage for 5 consecutive days with a gavage solution containing bromadiolone (LIPHATECH, France) and cholecalciferol (Sigma-Aldrich, France) in a solvent consisting of 95% (v/v) of oil and 5% (v/v) of DMSO. During this period of gavage, the rats are fed with a conventional solid feed and water in unlimited amounts. The rats are fed by gavage with a volume of this gavage solution so as to administer an amount of bromadiolone corresponding to 0.1 mg of bromadiolone per kilogram of body weight of the rat fed by gavage and an amount of cholecalciferol corresponding to 7.5 mg of cholecalciferol per kilogram of body weight of the rat fed by gavage. The rats in two control groups, each consisting of 10 male OFA-Sprague-Dawley rats, are fed by gavage in the same conditions with gavage solutions containing, respectively, bromadiolone alone so as to administer an amount of bromadiolone corresponding to 0.1 mg of bromadiolone per kilogram of body weight of the rat fed by gavage and cholecalciferol alone so as to administer an amount of cholecalciferol corresponding to 7.5 mg of cholecalciferol per kilogram of body weight of the rat fed by gavage. […]

Experiment [2] has as its system rats that are homozygotic carriers of the L120Q mutation. The experiment can be described thus: Relative toxicity of cholecalciferol, single gavage dose, L120Q rats. Conditions: single gavage dose 30 mg/kg; 20 days. From the text:
Warfarin-sensitive Sprague-Dawley rats (20 male rats and 20 female rats), male and female rats that are homozygotic carriers of the L120Q mutation, male and female Sprague-Dawley rats that are homozygotic carriers of the Y139F mutation and male and female brown rats (Rattus norvegicus) that are homozygotic carriers of the Y1 39C mutation are acclimatized for 5 days in the presence of a conventional solid feed and water in unlimited amounts. The rats are fed by gavage with a single dose of a gavage solution containing cholecalciferol (Sigma-Aldrich, France) in a solvent consisting of 95% (v/v) of oil and 5% (v/v) of DMSO. The rats are fed with a conventional solid feed and water in unlimited amounts. The amount of cholecalciferol administered is 30 mg of cholecalciferol per kilogram of body weight of the rat fed by gavage. The percentage of rats surviving gavage for 20 days, counting from the first day of gavage, is noted daily. The results given in Table 4 hereunder describe the mortality observed (“SD”, Sprague-Dawley). The amount of cholecalciferol ingested by the rodents during gavage corresponds to consumption by these rodents of a bait assayed at 300 ppm of cholecalciferol.

In experiment [3] the test system is warfarin-sensitive male OFA-Sprague-Dawley rats. In words: Synergy of difethialone and cholecalciferol on warfarin-sensitive rats, gavage, survival. As to conditions: gavage once a day for 3 days; cholecalciferol alone 7.5 mg/kg; after 2 days of observation. From the text:
A group of warfarin-sensitive male OFA-Sprague-Dawley rats (Charles River, L′Arbresles, France), aged 10 weeks and with a body weight between 160 and 180 g, are fed by gavage once a day for 3 consecutive days with a gavage solution containing difethialone (LIPHATECH, France) and cholecalciferol (Sigma-Aldrich, France) in a solvent consisting of 95% (v/v) of oil and 5% (v/v) of DMSO. During this period of gavage, the rats are fed with a conventional solid feed and water in unlimited amounts. The amounts of difethialone and cholecalciferol administered are 125 μg per kilogram of body weight of the rat fed by gavage and 7.5 mg per kilogram of body weight of the rat fed by gavage, respectively. The rats in two control groups, each consisting of OFA-Sprague-Dawley rats, are fed by gavage in the same conditions with gavage solutions containing difethialone alone (125 μg/kg) or cholecalciferol alone (7.5 mg/kg), respectively. The percentage of rats surviving gavage is recorded daily, for 20 days counting from the first day of gavage. The results presented [FIG. 3] show the variation of the percentage of rodents surviving (in %) as a function of time (t, in days) following the first day of gavage. The rats fed by gavage with the difethialone solution (♦) have 100% survival after 20 days of observation. […]

For experiment [4], the system named is Female Sprague-Dawley rats that are homozygotic carriers of the Y139F mutation in the Vkorc1 gene. The experiment can be described thus: Synergy of difethialone and cholecalciferol on warfarin-resistant female Sprague-Dawley Y139F rats. Conditions: gavage once a day for 3 days; difethialone 0.125 mg/kg alone, cholecalciferol 7.5 mg/kg alone, or both combined; 22 days of observation. From the text: Female Sprague-Dawley rats that are homozygotic carriers of the Y139F mutation in the Vkorc1 gene, aged 10 weeks, are acclimatized for 5 days in the presence of a conventional solid feed and water in unlimited amounts. These female Sprague-Dawley Y139F rats are fed by gavage once a day for 3 consecutive days with a gavage solution containing difethialone (LIPHATECH, France) and cholecalciferol (Sigma-Aldrich, France) in a solvent consisting of 95% (v/v) of oil and 5% (v/v) of DMSO. During this period of gavage, the rats are fed with a conventional solid feed and water in unlimited amounts. The amounts of difethialone and cholecalciferol administered are 0.125 mg per kilogram of body weight of the rat fed by gavage and 7.5 mg per kilogram of body weight of the rat fed by gavage, respectively. The rats in two control groups, each consisting of OFA-Sprague-Dawley […] rats, are fed by gavage in the same conditions with gavage solutions containing, respectively, difethialone alone so as to administer an amount of difethialone corresponding to 0.125 mg per kilogram of body weight of the rat fed by gavage and cholecalciferol alone so as to administer an amount of cholecalciferol corresponding to 7.5 mg per kilogram of body weight of the rat fed by gavage. The percentage of rats surviving gavage is noted daily for 21 days counting from the first day of gavage. […]

As to `C=C1CC[C@H](O)C/C1=C/C=C1\CCC[C@]2(C)[C@@H]([C@H](C)CCCC(C)C)CC[C@@H]12` [cholecalciferol], the “percentage of rats surviving” value is 70% in experiment [1], 60% in experiment [3] and 90% in experiment [4]. In experiment [2], the “Female mortality, %” value is reported as 5%. The “Male mortality, %” value in experiment [2] is recorded as 15%.
